Measured values taken from patent US20100184815A1 (priority 2008, published 2010).

Molecular target: T1, Full Length hPPARβ/δ (Homo sapiens, UniProt Q03181)
T1 construct: Full Length; expressed in transfected cells; host or cells: Cos cells
T1 sequence (Q03181 1-441): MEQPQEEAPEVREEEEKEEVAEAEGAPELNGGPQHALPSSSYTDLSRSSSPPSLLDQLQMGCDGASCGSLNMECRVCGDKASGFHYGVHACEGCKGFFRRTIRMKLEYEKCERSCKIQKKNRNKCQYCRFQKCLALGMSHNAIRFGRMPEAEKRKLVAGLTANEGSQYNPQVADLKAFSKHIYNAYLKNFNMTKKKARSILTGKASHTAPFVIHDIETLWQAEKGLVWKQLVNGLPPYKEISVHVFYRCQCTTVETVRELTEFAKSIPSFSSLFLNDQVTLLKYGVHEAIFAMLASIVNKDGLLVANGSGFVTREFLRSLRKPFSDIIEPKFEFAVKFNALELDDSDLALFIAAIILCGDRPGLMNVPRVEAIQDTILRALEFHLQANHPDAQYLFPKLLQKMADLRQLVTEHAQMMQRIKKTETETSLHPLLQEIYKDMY
Experiment: Full length hPPARβ/δ transfection assay
Assay type: cell-based
Details: full length receptor; scale 1-5; read-out: Full Length hPPAR β/δ EC50 (scaled number)
Description: Transient transfection assays. Cos cells were seeded in 60-mm dishes at a density of 5.5×10^5 cells/dish in Dulbecco's modified Eagle's medium (DMEM) supplemented with 10% fetal calf serum (FCS) and incubated at 37° C. for 24 hours before transfection. Cells were transfected in Opti-MEM (Gibco; Invitrogen, Carlsbad, Calif.) without FCS for 3 hours at 37° C., using polyethylenimine, with reporter and expression plasmids. The plasmid pBluescript (Stratagene, La Jolla, Calif.) was used as carrier DNA to set the final amount of DNA to 5.5 μg/dish. The pCMV-b-galactosidase expression plasmid was cotransfected as a control for transfection efficiency. Transfection was stopped by the addition of DMEM supplemented with 10% FCS, and cells were then incubated at 37° C. After 16 hours, cells were trypsinized and seeded in 96-well plates at the density of 2×10^4 cells/well and incubated for 6 hours in 10% FCS-containing DMEM. Cells were then incubated for 24 hours in DMEM containing 0.2% FCS and increasing concentrations of the compound tested or vehicle (DMSO). At the end of the experiment, cells were washed once with ice-cold PBS, lysed and the luciferase and b-galactosidase assays were performed in a luminometer and spectrophotomer. Transfection efficiencies were normalized with the b-galactosidase activity assay. Half-maximal effective concentration (EC50) was estimated using Prism software (GraphPad). All transfection experiments were performed at least three times.
In the following tables, proprietary compound EC50 values for hPPAR α, β, δ and γ are shown. The EC50 value is the concentration of a drug that induces a response halfway between the baseline and maximum, and is commonly used as a measure of drug potency. EC50 values are reported on a scale of 1 through 5, wherein the value scale is defined for each receptor as follows: […]

SMILES | EC50
CCCCCCn1c(COC(=O)c2ccc(SC(C)(C)C(=O)O)cc2)nn(Cc2ccc(C)cc2)c1=O [Compound 160, 2-(4-(((4-hexyl-1-(4-methylbenzyl)-5-oxo-4,5-dihydro-1H-1,2,4-triazol-3-yl)methoxy)carbonyl)phenylthio)-2-methylpropanoic acid] | 201 to 999 nM
CCCCCCCCn1c(COC(=O)c2ccc(SC(C)(C)C(=O)O)cc2)nn(Cc2ccc(C)cc2)c1=O [Compound 161, 2-methyl-2-(4-(((1-(4-methylbenzyl)-4-octyl-5-oxo-4,5-dihydro-1H-1,2,4-triazol-3-yl)methoxy)carbonyl)phenylthio)propanoic acid] | 201 to 999 nM
CCCCCCCn1c(COC(=O)c2ccc(SC(C)(C)C(=O)O)cc2)nn(Cc2ccc(C)cc2)c1=O [Compound 191, 2-(4-(((4-heptyl-1-(4-methylbenzyl)-5-oxo-4,5-dihydro-1H-1,2,4-triazol-3-yl)methoxy)carbonyl)phenylthio)-2-methylpropanoic acid] | 51 to 200 nM
